The subject of assay [1] is MRSA. Kind of assay: antibacterial activity (MIC) by agar plate dilution method, MRSA strains. The conditions noted are these: Staphylococcus aureus, 20 h, MRSA (20 strains); for MIC50: read-out: MIC50; for MIC: MRSA, range over strains, read-out: MIC. It counts as cell-based, methicillin-resistant Staphylococcus aureus. The method, boiled down: (§1)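 Mueller-Hinton agar plates containing 2-fold serial β-lactam dilutions plus a fixed concentration of test sample; inoculum 10^6 CFU/ml, 37° C. for 20 hours. MIC read as concentration inhibiting growth; MIC80 and MIC50 = 80% and 50% growth inhibition. Flavones dissolved in methanol, others in 0.1 N NaOH.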

The test system of assay [2] is MSSA. Kind of assay: antibacterial activity (MIC) by agar plate dilution method, MSSA strains. The format is cell-based, Methicillin-sensitive Staphylooccus aureus. The conditions noted are these: Staphylococcus aureus, 20 h, MSSA (7 strains); for MIC50: read-out: MIC50; for MIC: MSSA, range over strains, read-out: MIC. The essentials: as §1
The next assay deals with MRSA or MSSA. As to the kind of experiment: inhibition of methicillin resistance by flavone derivatives, MRSA or MSSA. It counts as cell-based, Staphylococcus aureus. The conditions noted are these: methicillin with flavone derivative, Table 4. The method, then:
(§2) The screening of the present invention may be carried out according to the agar plate dilution method designated by the Japan Society of Chemotherapy (Chemotherapy 29(1), 76-79 (1981)). Mueller-Hinton agar base semi-synthetic medium may be used for a plate culture medium for a sensitivity test together with an inoculating bacteria solution which may be prepared by culturing bacteria to be tested at 37° C. for 20 hours diluted with 8.5% by isotonic sodium chloride solution to 10^6 CFU/ml. Diluted β-lactam solutions are prepared by two times serial dilution. 1 ml of the diluted β-lactam solution and 1 ml of a predetermined concentration of a sample to be tested are added to 8 ml of the plate culture medium for a sensitivity test. […]
(§3) Mueller-Hinton agar base semi-synthetic medium was used as a plate culture medium for the sensitivity test, and an inoculating bacteria solution was prepared by culturing bacteria to be tested at 37° C. for 20 hours and diluting with 8.5% by weight isotonic sodium chloride solution to a final concentration of 10^6 CFU/ml. […] To the resultant plate culture medium for the sensitivity test, the inoculating bacteria were inoculated using a microplanter (SAKUMASEISAKUSYO Co.), cultured for 20 hours at 37° C. and then minimum inhibition concentration (MIC) was assessed.

For assay [3], the system named is MRSA. Kind of assay: antibacterial activity of antibiotics alone and in the presence of apigenin (4 μg/ml), MRSA. It counts as cell-based, methicillin-resistant Staphylococcus aureus. Particulars: for MIC50: MRSA. The method, boiled down: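 MICs were determined by agar plate dilution on Mueller-Hinton medium with two-fold serial antibiotic dilutions, alone or together with apigenin at 4 μg/ml. The MRSA inoculum was 10^6 CFU/ml. Plates were incubated at 37 °C for 20 h.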

The subject of assay [4] is MRSA. Kind of assay: antibacterial activity of methicillin in the presence of flavone derivatives, MRSA. The format is cell-based, methicillin-resistant Staphylococcus aureus. The method, then: as §2, §3
In assay [5] the test system is MSSA. Kind of assay: antibacterial activity of methicillin in the presence of flavone derivatives, MSSA. The conditions noted are these: Staphylococcus aureus, 20 h; methicillin alone; MSSA (7 strains). The format is cell-based, Methicillin-sensitive Staphylooccus aureus. The method, then:
as §2, §3

The test system of assay [6] is MRSA No. 5. As to the kind of experiment: effect of flavone on antibacterial activity of antibiotics against MRSA No. 5 in bouillon (broth microdilution). It counts as cell-based, methicillin-resistant Staphylococcus aureus. Particulars: for MIC: Staphylococcus aureus, MRSA, 20 h, read-out: MIC. The method, then:
Alternatively, the screening of the present invention may be carried out according to the broth microdilution method designated by the Japan Society of Chemotherapy (Chemotherapy 38(1), 102-105 (1990)). Muellar-Hinton broth is used as a culture medium for the sensitivity test, and 50 mg/ml of calcium(Ca) ion, 25 mg/ml of magnesium(Mg) ion, and 2% sodium chloride (NaCl) are added thereto. An inoculating bacteria solution may be prepared by culturing bacteria to be tested in Mueller-Hinton broth at 37° C. for 20 hours and diluting with Mueller-Hinton broth to 10^5 CFU/ml final concentration of inoculating bacteria. Diluted β-lactam solution is prepared by two times serial dilution series. 10 μl of the diluted β-lactam solution and 10 μl of a predetermined concentration of a sample of bacteria to be tested are added to mix with 80 μl of the culture medium for the sensitivity test. To the resultant plate culture medium for sensitivity test, the inoculating bacteria are added and culturing is carried out for 20 hours at 37° C. and then assessment for a minimum inhibition concentration (MIC) is carried out. A minimum inhibition concentration means the minimum concentration of β-lactam at which growth of bacteria is not recognized by the naked eye.
(G) Antibacterial activity of 6 β-lactams, that is, cephalothin, cefuroxime, cefotaxime, cefoxitin, streptomycin and vancomycin, against MRSA in the presence of 0.5 mM flavone was studied in bouillon.
Muellar-Hinton broth was used as a culture medium for the sensitivity test, and 50 mg/ml of calcium (Ca) ion, 25 mg/ml of maqnesium (Mg) ion, 2% sodium chloride (NaCl) were added thereto. An inoculating bacteria solution was prepared by culturing bacteria to be tested with Mueller-Hinton broth at 37° C. for 20 hours and diluting with Mueller-Hinton broth to 10^5 CFU/ml final concentration of inoculating bacteria. Diluted β-lactam solutions were prepared in two times serial dilutions starting from 10 mM. Ten microliters of the diluted β-lactam solution and 10 μl of 5 mM of flavone were mixed with 80 μl of the culture medium for the sensitivity test in a microplate having U-shaped wells and samples of bacteria to be tested were added thereto. The mixture was cultured 20 hours at 37° C. and then assessed for minimum inhibition concentration (MIC). Minimum inhibition concentration means minimum concentration of a β-lactum at which growth of bacteria is inhibited to the extent that bacteria is not recognized by the naked eye.
In general terms: In broth dilution the organism is exposed to a series of concentrations in liquid medium.

The subject of assay [7] is MRSA No. 5. Described as above. It counts as cell-based, methicillin-resistant Staphylococcus aureus. The conditions noted are these: for MIC: Staphylococcus aureus, MRSA, 20 h, read-out: antibacterial activity of methicillin against MRSA No. 5.

Data on three molecules can be found in patent publication US6294526A, “Use of flavone derivatives for induction of β-lactam-sensitivity of MRSA” (priority 1998, dated 2001).

Structures are written as SMILES. In brackets after ≈: the same amount, converted by molar mass. Read-outs that look alike come from different tables or passages of the source. A value given as a limit tells only on which side of the number the result lay.

As usually defined, the MIC50 is an inhibitory concentration at the 50% level, which refers to growth in some studies and to a panel of isolates in others.

For the molecule `O=C1c2c(O)cc(O)cc2O[C@H](c2ccc(O)c(O)c2)[C@H]1O` [(+)-Taxifolin, (+)-taxifolin], the MIC50 with MRSA [1] and in the assay with MSSA [2] was more than 250 µg/mL in each case. Further, the MIC with MRSA [1] and in the assay on MSSA [2] was more than 250 µg/mL in each case. The “inhibition of resistance to methicillin (in words)” value in the assay with MRSA or MSSA is “inhibited resistance to methicillin”.
On to `O=c1cc(-c2ccccc2)oc2ccccc12` [Flavone, flavone], for which the MIC50 with MRSA [1] and in the assay on MSSA [2] was more than 250 µg/mL in each case. Moreover, the MIC with MRSA [1] and with MSSA [2] was more than 250 µg/mL throughout. The “inhibition of resistance to methicillin (in words)” value in the assay on MRSA or MSSA is listed as “inhibited the most strongly”.
In the case of `COc1cccc(OC)c1C(=O)N[C@@H]1C(=O)N2[C@@H]1SC(C)(C)[C@@H]2C(=O)O` [Methicillin, methicillin], the MIC50 with MRSA [3] (Antibiotics alone) was more than 250 µg/mL; in the assay on MRSA [3] (Antibiotics alone, listed as methicillin), 1000 µg/mL; in the assay with MRSA [3] (Staphylococcus aureus, 20 h, antibiotic with Apigenin (4 μg/ml), read-out: MIC50), 15.6 µg/mL; in the assay on MRSA [4] (Staphylococcus aureus, 20 h, methicillin alone, MRSA (20 strains)) it was more than 250 µg/mL; in the assay with MSSA [5], 2 µg/mL. In addition, the “times as potent as methicillin alone” value in the assay on MRSA [3] (MIC50, methicillin plus 4 μg/ml apigenin vs methicillin alone) is recorded as “about 700 times”. Moreover, the “inhibition of β-lactam resistant MRSA / improvement of antibacterial effect with apigenin (in words)” value in the assay on MRSA [3] (apigenin 4 μg/ml or less than its MIC) is “inhibited β-lactam resistant MRSA”. Further, the “antibacterial activity of methicillin on MRSA No.5 (in words)” value with MRSA [4] (under the presence of flavone) is recorded as “strong on MRSA No.5”. In addition, the MIC is 0.98 to 2 µg/mL in the assay on MSSA [5]; 1000 µM (≈ 380 µg/mL) with MRSA No. 5 [6] (Concentration of flavone 0 mM); 15.6 µM (≈ 5.93 µg/mL) in the assay on MRSA No. 5 [6] (Concentration of flavone 0.5 mM); more than 1000 µM in the assay with MRSA No. 5 [7] (Control (no flavone)); 1000 µM (≈ 380 µg/mL) with MRSA No. 5 [7] (flavone 0.11 mM (25 μg/ml)); 31.2 µM (≈ 11.9 µg/mL) in the assay on MRSA No. 5 [7] (flavone 0.2 mM). Further, the values for the MIC with MRSA No. 5 [7] (flavone 0.23 mM (50 μg/ml)) and in the assay on MRSA No. 5 [7] (flavone 0.5 mM) were 31.2 µM (≈ 11.9 µg/mL) and 15.6 µM (≈ 5.93 µg/mL), respectively. In addition, in the assay with MRSA No. 5 [6] (in the presence of flavone 0.5 mM), the “inhibitory effect on resistance of MRSA No.5 (in words)” value is reported as “showed inhibitory effect on resistance of MRSA No.5”. Also, the “antibacterial activity of methicillin against MRSA (in words)” value in the assay on MRSA No. 5 [7] (flavone 0.2 mM) is “prominently shown”; in the assay on MRSA No. 5 [7] (in proportion to increase of flavone concentration), “increased”.
